Experimental data reported in patent US20250179033A1 (priority 2021, published 2025).
pEC50, pIC50: −log10 of the molar value. Like-named read-outs stand apart in the source and are kept apart here.

Tests used:
HIV-1 IIIB (wild-type) = assay: HIV inhibition assay in TZM-bl cells, wild-type; type: cell-based; conditions: Human immunodeficiency virus 1, IIIB; for pIC50: Table 4, TZM-bl, read-out: IC50 (TZM, WT)
Protocol: (§1) Cells and virus culture: TZM-bl cells (42), HIV-1 IIIB virus (43-45) and HIV-1 IIIB (A17 variant) virus (46) as well are the NNRTI resistant mutants (strain NL4-3) (47) were obtained from the NIH HIV Reagent Program. H9 [derivative of HuT 78]cells (ATCC® HTB176™) were obtained from the American Type Culture Collection (Manassas, Virginia, United States of America). These viruses were grown in H9 cells to high titer, which was tested using a HIV p24 (high sensitivity) The detection kit used was sold under the tradename ALPHALISA® Detection Kit (PerkinElmer, Waltham, Massachusetts, United States of America). The viruses were concentrated using Lenti-X Concentrator (Takara Bio USA, Inc., Mountain View, California, United States of America). Infections of TZM-bl cells with either virus was facilitated with 15 μg/mL DEAE-dextran.
(§2) Compounds were serially diluted starting with 10 mM stocks in DMSO. DMSO concentrations were kept the same for all dilutions used within an assay (either 0.005% or 0.05% depending on highest concentration used). Duplicate 96-well plates were set up with 25 μL compound dilution, 25 μL virus, and 50 μL TZM-bl cells (2×10^5/mL) with DEAE-dextran and incubated at 37° C. 5% CO2 for 48 hr. All compounds were tested in triplicate, with single wells of efavirenz dilutions on each plate. All plates had 3-5 control wells without compound, 1 control well with no cells, and 1 control well with a highly toxic level of DMSO (9%). Inhibition assays were set up in clear tissue-culture treated plates with lysates moved to black assay plates or were set up in black tissue culture-treated plates. Medium was removed and the cells were lysed with Glo Lysis Buffer (Promega, Madison, Wisconsin, United States of America). Luciferase Assay System reagent (Promega, Madison, Wisconsin, United States of America) was added to cells and relative light units (RLU) was measured using an EnSpire instrument (PerkinElmer, Waltham, Massachusetts, United States of America). Toxicity assays were set up in clear tissue culture-treated plates. CellTiter-Blue Cell Viability Assay reagent (Promega) was added to the wells after 46 hr incubation, followed by 2 hr incubation. Sodium lauryl sulfate was added to 1.5% to stop the reaction and the plates were measured for fluorescence (560 nmEx/590 nmEm) using an EnSpire instrument (PerkinElmer, Waltham, Massachusetts, United States of America).

[1] = Toxicity assay in TZM-bl cells; type: cell-based; conditions: human
Protocol: as §2

[2] = system: primary mouse neuron cultures; assay: Calcium imaging in primary neurons; type: cell-based; conditions: 1 μM
Protocol: The direct effects of the antiretroviral compounds were tested on primary rat and mouse neurons cultured on coverslips. Neurons at 14-18 days in vitro were loaded with the calcium indicator, Fluo-4 AM (2 μM, Molecular Probes, Inc., Eugene, Oregon, United States of America) in aCSF (aCSF: NaCl […], KCl 5.0 mM, CaCl2 2.3 mM, MgCl2 1.3 mM, glucose 20 mM). After 30 minutes of dye loading, the coverslip was transferred to a specialized stage for imaging. Cells were maintained in aCSF and time-lapse digital images were automatically captured on an Olympus IX71 microscope using software sold under the tradename METAMORPH® (Molecular Devices, San Jose, California, United States of America). Images were captured with a 40 msec exposure every 6 seconds for 6 minutes to assess acute effects and every minute for 60 minutes to assess delayed effects. Three pre-stimulation measurements were taken to establish basal levels of fluorescence at the beginning of each experiment. After collection of the third image, neurons the antiretroviral compound or vehicle diluted from the stock vial into aCSF was added to the neurons at the indicated final concentration. Baseline fluorescence was subtracted to correct for cell-to-cell differences in dye loading and intrinsic fluorescence. Changes in fluorescence at each time point were averaged across all cells from at least triplicate runs to provide an indication of the “typical” response. In some cases, individual cell response patterns are shown where the average masked important cell-specific profiles. All compounds were tested at 1 μM.

[3] = system: HIV-1 IIIB A17 variant (Y181C/K103N); assay: HIV inhibition assay in TZM-bl cells, A17 variant; type: cell-based; conditions: Human immunodeficiency virus 1, IIIB, TZM-bl; for pIC50: read-out: IC50 (TZM, A17), Table 4, TZM-bl
Protocol: as §1, §2

[4] = biological target: T1, HIV I reverse transcriptase (Human immunodeficiency virus type 1 group M subtype B, UniProt P03366); assay: Reverse transcriptase inhibition assay (Roche kit, ELISA); type: biochemical
T1 construct: purchased Roche
Protocol: NNRTI assay methods: Inhibition of HIV I reverse transcriptase was assessed via a kit from Roche (Indianapolis-Marion County, Indiana, United States of America) using the manufacture's protocol (500 μM final reverse transcriptase reaction amount). […] DMSO concentrations were kept the same for all dilutions used within an assay (0.05%). Final compound concentrations ranged from 5000 nM-0.05 nM with 2-fold serial dilutions. 96-well plates were set up with 20 μL compound dilution, 20 μL reverse transcriptase, and 20 μL template/nucleotides and incubated at 37° C. 5% CO2 for 1 hr in a reaction plate. 50 μL of each reaction was then transferred to a streptavidin conjugated 96-well plate and an ELISA assay was run based on manufacture's protocol. All compounds were tested in sextuplicate, with single wells of efavirenz dilutions on each plate.

SMILES | pIC50 (HIV-1 IIIB (wild-type)) | pEC50 (HIV-1 IIIB (wild-type); text b494, FIG. 2F, read-out: antiviral activity against wildtype, EC50) | CC50 at 48 h [1] [nM] | acute spike frequency / acute signaling [2] | pIC50 [3] | pEC50 ([3]; read-out: activity against the A17 double mutant (Y181C/K103N), EC50) | pEC50 [4] | pIC50 [4] | CC50 at 48 h ([1]; TZM-bl cells, Table 4, TZM-bl, read-out: CC50 (TZM)) [nM] | delayed spike frequency [2] | total calcium accumulation [2] | toxic effects by calcium imaging, overall [2]
Cc1cc(/C=C/C#N)cc(C)c1Nc1ccnc(Nc2ccc(C#N)cc2)n1 [Rilpivirine, rilpivirine, reference compound] | 9.45 | 9.46 | 112000 | decrease | 9.09 | 8.80 | 6.42 | 5.93 |  |  |  | 
O=C1Nc2ccc(Cl)cc2[C@@](C#CC2CC2)(C(F)(F)F)O1 [Efavirenz, efavirenz] | 9.18 |  |  | trend towards a reduced acute signaling | 7.77 |  |  |  | > 100000 | increase | most dramatic increase | seemed to have some toxic effects
